pIC50: −log10 of the molar value.

One assay relates to prostate line LNCap. Put plainly: In vitro cell culture growth assay (MTS), LNCap.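 Further: viable cell density read by absorbance at 490 nm, growth expressed as percent of vehicle-treated cells on the same plate.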 It counts as cell-based, human. As to conditions: Homo sapiens, LNCaP, 72 h, LNCap cells, three days after drug treatment.
Another assay concerns the target PI3K (Homo sapiens, UniProt P42336). Briefly: Fluorescence polarization assay for PI3K.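 Further: PI3K kinase reaction on PIP2 with ATP, 30-60 min, product sensed by GST-GRP with red probe in fluorescence polarization (mP), controls without enzyme and at zero time.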 It counts as biochemical. As to conditions: PI3Kα; read-out: PI3Kα IC50. In general terms: Polarisation of emitted light reports the rotation of a fluorescent probe.
In another assay the test system is breast line MDA468. Put plainly: In vitro cell culture growth assay (MTS), MDA468. It counts as cell-based, human. As to conditions: Homo sapiens, 72 h, MDA468 cells, three days after drug treatment. The method, boiled down:
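Growth measured as percent of same-plate vehicle control by MTS metabolic dye conversion (A490). Breast MDA468 and prostate LNCap cells, plated a day ahead, were exposed to compounds for 3 days.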

Sequence of PI3K (P42336 whole entry): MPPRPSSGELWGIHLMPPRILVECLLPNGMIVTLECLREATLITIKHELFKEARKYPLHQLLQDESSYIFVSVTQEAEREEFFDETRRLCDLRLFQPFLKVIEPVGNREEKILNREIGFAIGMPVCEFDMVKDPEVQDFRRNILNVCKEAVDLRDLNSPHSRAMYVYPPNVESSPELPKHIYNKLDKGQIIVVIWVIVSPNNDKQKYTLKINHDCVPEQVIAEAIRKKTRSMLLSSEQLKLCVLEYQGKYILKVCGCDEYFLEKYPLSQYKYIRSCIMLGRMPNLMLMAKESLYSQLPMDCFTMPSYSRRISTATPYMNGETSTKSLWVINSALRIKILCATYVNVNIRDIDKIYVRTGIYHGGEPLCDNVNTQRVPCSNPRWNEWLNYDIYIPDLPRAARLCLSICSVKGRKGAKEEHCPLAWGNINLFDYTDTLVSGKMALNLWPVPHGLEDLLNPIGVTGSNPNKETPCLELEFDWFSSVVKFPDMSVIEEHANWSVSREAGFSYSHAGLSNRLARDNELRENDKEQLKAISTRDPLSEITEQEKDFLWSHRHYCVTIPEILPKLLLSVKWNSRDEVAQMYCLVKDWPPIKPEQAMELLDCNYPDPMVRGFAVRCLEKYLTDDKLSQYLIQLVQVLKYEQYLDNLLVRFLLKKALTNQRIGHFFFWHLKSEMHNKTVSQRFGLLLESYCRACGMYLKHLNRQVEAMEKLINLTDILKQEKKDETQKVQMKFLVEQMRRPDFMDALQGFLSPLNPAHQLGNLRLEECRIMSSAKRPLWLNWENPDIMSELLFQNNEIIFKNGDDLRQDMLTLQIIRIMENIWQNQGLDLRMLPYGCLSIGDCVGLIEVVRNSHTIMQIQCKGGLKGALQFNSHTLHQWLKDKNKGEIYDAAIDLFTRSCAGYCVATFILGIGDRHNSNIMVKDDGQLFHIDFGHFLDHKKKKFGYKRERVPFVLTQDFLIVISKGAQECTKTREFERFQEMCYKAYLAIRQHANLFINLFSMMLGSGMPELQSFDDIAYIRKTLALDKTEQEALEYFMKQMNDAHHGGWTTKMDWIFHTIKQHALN
Sequence of PI3K (P27986 whole entry partner): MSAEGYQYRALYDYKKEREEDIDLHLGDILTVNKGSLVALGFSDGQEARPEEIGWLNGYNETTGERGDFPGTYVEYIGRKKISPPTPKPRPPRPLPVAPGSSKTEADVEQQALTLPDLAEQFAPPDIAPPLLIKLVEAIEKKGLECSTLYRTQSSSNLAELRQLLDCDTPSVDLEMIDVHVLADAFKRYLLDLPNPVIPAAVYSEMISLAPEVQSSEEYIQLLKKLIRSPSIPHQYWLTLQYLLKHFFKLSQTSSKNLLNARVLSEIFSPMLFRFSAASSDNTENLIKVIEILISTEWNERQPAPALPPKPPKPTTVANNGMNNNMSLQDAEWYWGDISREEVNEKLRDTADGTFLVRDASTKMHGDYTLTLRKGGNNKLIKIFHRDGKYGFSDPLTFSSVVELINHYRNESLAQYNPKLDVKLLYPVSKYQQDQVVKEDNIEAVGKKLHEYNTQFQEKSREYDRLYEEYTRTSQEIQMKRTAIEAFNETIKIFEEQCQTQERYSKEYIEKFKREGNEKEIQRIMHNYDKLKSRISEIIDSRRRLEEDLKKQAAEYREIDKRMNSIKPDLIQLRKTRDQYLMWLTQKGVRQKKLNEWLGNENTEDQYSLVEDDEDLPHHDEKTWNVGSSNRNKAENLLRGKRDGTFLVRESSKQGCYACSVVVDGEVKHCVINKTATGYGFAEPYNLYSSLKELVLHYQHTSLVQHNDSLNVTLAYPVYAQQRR

By pIC50 is commonly meant the IC50 on a negative log10 scale, so that one unit is a factor of ten. On to `Cc1ccc(C(=O)N2CCC(n3ncc4c(N5CCOCC5)nc(-c5ccc6[nH]ccc6c5)nc43)CC2)cn1` [Example 202, 6-(1H-indol-5-yl)-1-{1-[(6-methylpyridin-3-yl)carbonyl]piperidin-4-yl}-4-morpholin-4-yl-1H-pyrazolo[3,4-d]pyrimidine], for which the pIC50 in the assay on prostate line LNCap is 6.40; at PI3K, 5.68; in the assay on breast line MDA468, 5.70.

As for `Oc1cccc(-c2nc(N3CCOCC3)c3cn[nH]c3n2)c1` [Example 204, 3-(4-morpholin-4-yl-1H-pyrazolo[3,4-d]pyrimidin-6-yl)phenol], the figures for the pIC50 with prostate line LNCap, at PI3K and in the assay on breast line MDA468 were 5.60, 7.59 and 5.10, respectively.

In the case of `Nc1ccc(-c2nc(N3CCOCC3)c3cnn(C4CCN(Cc5cccnc5)CC4)c3n2)cn1` [Example 210, 5-{4-morpholin-4-yl-1-[1-(pyridin-3-ylmethyl)piperidin-4-yl]-1H-pyrazolo[3,4-d]pyrimidin-6-yl}pyridin-2-amine], the figures for the pIC50 in the assay on prostate line LNCap, on PI3K and in the assay with breast line MDA468 were 6.70, 6.97 and 5.96, respectively.

For `CCCCNC(=O)Nc1ccc(-c2nc(N3CCOCC3)c3cnn(C4CCN(Cc5cccnc5)CC4)c3n2)cc1` [Example 212, 1-Butyl-3-(4-{4-morpholin-4-yl-1-[1-(pyridin-3-ylmethyl)piperidin-4-yl]-1H-pyrazolo[3,4-d]pyrimidin-6-yl}phenyl)urea], the pIC50 in the assay with prostate line LNCap is 6.43; at PI3K, 6.97; with breast line MDA468 it was 5.85.

`COC(=O)Nc1ccc(-c2nc(N3CCOCC3)c3cnn(C4CCN(C(=O)c5cccnc5)CC4)c3n2)cc1` [Example 213, methyl (4-{4-morpholin-4-yl-1-[1-(pyridin-3-ylcarbonyl)piperidin-4-yl]-1H-pyrazolo[3,4-d]pyrimidin-6-yl}phenyl)carbamate]: the pIC50 in the assay on prostate line LNCap was 6.45; on PI3K, 6.29; in the assay on breast line MDA468, 5.92.

Turning to `Nc1ccc(-c2nc(N3CCOCC3)c3cnn(C4CCN(C(=O)c5cccnc5)CC4)c3n2)cn1` [Example 214, 5-{4-morpholin-4-yl-1-[1-(pyridin-3-ylcarbonyl)piperidin-4-yl]-1H-pyrazolo[3,4-d]pyrimidin-6-yl}pyridin-2-amine], the pIC50 was 6.24 in the assay with prostate line LNCap, 6.96 on PI3K and 5.82 in the assay on breast line MDA468.

On to `Nc1ncc(-c2nc(N3CCOCC3)c3cnn(C4CCN(C(=O)c5cccnc5)CC4)c3n2)cn1` [Example 215, 5-{4-morpholin-4-yl-1-[1-(pyridin-3-ylcarbonyl)piperidin-4-yl]-1H-pyrazolo[3,4-d]pyrimidin-6-yl}pyrimidin-2-amine], for which the pIC50 with prostate line LNCap is 6.19; at PI3K, 7.43; in the assay with breast line MDA468, 5.89.

Turning to `CCCCNC(=O)Nc1ccc(-c2nc(N3CCOCC3)c3cnn(C4CCN(C(=O)c5cccnc5)CC4)c3n2)cc1` [Example 216, 1-butyl-3-(4-{4-morpholin-4-yl-1-[1-(pyridin-3-ylcarbonyl)piperidin-4-yl]-1H-pyrazolo[3,4-d]pyrimidin-6-yl}phenyl)urea], the pIC50 is 6.40 in the assay with prostate line LNCap, 6.35 at PI3K and 5.82 in the assay with breast line MDA468.

`COC(=O)N1CCC(n2ncc3c(N4CCOCC4)nc(-c4ccc5[nH]ccc5c4)nc32)CC1` [Example 244, methyl 4-[6-(1H-indol-5-yl)-4-morpholin-4-yl-1H-pyrazolo[3,4-d]pyrimidin-1-yl]piperidine-1-carboxylate]: the pIC50 is 6.12 with prostate line LNCap, 5.48 on PI3K and 5.68 in the assay on breast line MDA468.

For `CCCNC(=O)Nc1ccc(-c2nc(N3CCOCC3)c3cnn(C4CCN(Cc5ccccc5)CC4)c3n2)cc1` [Example 254, 1-{4-[1-(1-benzylpiperidin-4-yl)-4-morpholin-4-yl-1H-pyrazolo[3,4-d]pyrimidin-6-yl]phenyl}-3-propylurea], the figures for the pIC50 in the assay with prostate line LNCap, at PI3K and with breast line MDA468 were 6.66, 6.47 and 5.82, respectively.

As for `O=C(NCC1CC1)Nc1ccc(-c2nc(N3CCOCC3)c3cnn(C4CCN(Cc5ccccc5)CC4)c3n2)cc1` [Example 262, 1-{4-[1-(1-benzylpiperidin-4-yl)-4-morpholin-4-yl-1H-pyrazolo[3,4-d]pyrimidin-6-yl]phenyl}-3-(cyclopropylmethyl)urea], the pIC50 is 6.15 in the assay on prostate line LNCap, 6.41 at PI3K and 5.52 in the assay with breast line MDA468.

As for `C=CCNC(=O)Nc1ccc(-c2nc(N3CCOCC3)c3cnn(C4CCN(Cc5ccccc5)CC4)c3n2)cc1` [Example 263, 1-allyl-3-{4-[1-(1-benzylpiperidin-4-yl)-4-morpholin-4-yl-1H-pyrazolo[3,4-d]pyrimidin-6-yl]phenyl}urea], the pIC50 in the assay with prostate line LNCap was 6.60; at PI3K it was 6.57; in the assay with breast line MDA468 it was 5.74.

As for `NCCNC(=O)Nc1ccc(-c2nc(N3CCOCC3)c3cnn(C4CCN(Cc5ccccc5)CC4)c3n2)cc1` [Example 267, 1-(2-aminoethyl)-3-{4-[1-(1-benzylpiperidin-4-yl)-4-morpholin-4-yl-1H-pyrazolo[3,4-d]pyrimidin-6-yl]phenyl}urea], the pIC50 in the assay on prostate line LNCap was 5.70; at PI3K, 7.85; with breast line MDA468, 5.57.

Take `O=C(NCCCO)Nc1ccc(-c2nc(N3CCOCC3)c3cnn(C4CCN(Cc5ccccc5)CC4)c3n2)cc1` [Example 269, 1-{4-[1-(1-benzylpiperidin-4-yl)-4-morpholin-4-yl-1H-pyrazolo[3,4-d]pyrimidin-6-yl]phenyl}-3-(3-hydroxypropyl)urea]: the pIC50 was 7.10 in the assay with prostate line LNCap, 6.44 on PI3K and 6.15 with breast line MDA468.

Take `CCONC(=O)Nc1ccc(-c2nc(N3CCOCC3)c3cnn(C4CCN(Cc5ccccc5)CC4)c3n2)cc1` [Example 287, 1-{4-[1-(1-benzylpiperidin-4-yl)-4-morpholin-4-yl-1H-pyrazolo[3,4-d]pyrimidin-6-yl]phenyl}-3-ethoxyurea]: the pIC50 is 6.17 in the assay with prostate line LNCap, 6.56 at PI3K and 6.70 in the assay with breast line MDA468.

For the compound `O=C(NCC(F)(F)F)Nc1ccc(-c2nc(N3CCOCC3)c3cnn(C4CCN(Cc5ccccc5)CC4)c3n2)cc1` [Example 289, 1-{4-[1-(1-benzylpiperidin-4-yl)-4-morpholin-4-yl-1H-pyrazolo[3,4-d]pyrimidin-6-yl]phenyl}-3-(2,2,2-trifluoroethyl)urea], the pIC50 is 6.49 in the assay with prostate line LNCap, 6.23 on PI3K and 5.89 in the assay with breast line MDA468.

On to `NNC(=O)Nc1ccc(-c2nc(N3CCOCC3)c3cnn(-c4ccccc4)c3n2)cc1` [Example 292, N-[4-(4-morpholin-4-yl-1-phenyl-1H-pyrazolo[3,4-d]pyrimidin-6-yl)phenyl]hydrazinecarboxamide], for which the results for the pIC50 in the assay on prostate line LNCap, at PI3K and with breast line MDA468 were 5.28, 6.77 and 5.10, respectively.

As for `O=C(NO)Nc1ccc(-c2nc(N3CCOCC3)c3cnn(-c4ccccc4)c3n2)cc1` [Example 293, 1-hydroxy-3-[4-(4-morpholin-4-yl-1-phenyl-1H-pyrazolo[3,4-d]pyrimidin-6-yl)phenyl]urea], the pIC50 in the assay on prostate line LNCap is 6.32; at PI3K it was 6.68; with breast line MDA468 it was 5.96.

`O=C(NCCF)Nc1ccc(-c2nc(N3CCOCC3)c3cnn(-c4ccccc4)c3n2)cc1` [Example 294, 1-(2-fluoroethyl)-3-[4-(4-morpholin-4-yl-1-phenyl-1H-pyrazolo[3,4-d]pyrimidin-6-yl)phenyl]urea]: the figures for the pIC50 in the assay on prostate line LNCap, at PI3K and with breast line MDA468 were 6.72, 6.60 and 6.05, respectively.

`CNCCNC(=O)Nc1ccc(-c2nc(N3CCOCC3)c3cnn(C4CCN(Cc5ccccc5)CC4)c3n2)cc1` [Example 300, 1-{4-[1-(1-benzylpiperidin-4-yl)-4-morpholin-4-yl-1H-pyrazolo[3,4-d]pyrimidin-6-yl]phenyl}-3-[2-(methylamino)ethyl]urea]: the results for the pIC50 in the assay on prostate line LNCap, at PI3K and with breast line MDA468 were 6.70, 7.89 and 6.70, respectively.

For the compound `NC(=O)Nc1ccc(-c2nc(N3CCOCC3)c3cnn(C4CCN(C(=O)c5cccnc5)CC4)c3n2)cc1` [Example 301, 1-(4-{4-morpholin-4-yl-1-[1-(pyridin-3-ylcarbonyl)piperidin-4-yl]-1H-pyrazolo[3,4-d]pyrimidin-6-yl}phenyl)urea], the pIC50 with prostate line LNCap was 5.52; on PI3K it was 6.75; in the assay on breast line MDA468, 5.74.

In the case of `O=C(NCCF)Nc1ccc(-c2nc(N3CCOCC3)c3cnn(C4CCN(C(=O)c5cccnc5)CC4)c3n2)cc1` [Example 303, 1-(2-fluoroethyl)-3-(4-{4-morpholin-4-yl-1-[1-(pyridin-3-ylcarbonyl)piperidin-4-yl]-1H-pyrazolo[3,4-d]pyrimidin-6-yl}phenyl)urea], the pIC50 is 6.20 in the assay with prostate line LNCap, 6.27 on PI3K and 6.30 in the assay with breast line MDA468.

Consider `O=C(NCCO)Nc1ccc(-c2nc(N3CCOCC3)c3cnn(C4CCN(C(=O)c5cccnc5)CC4)c3n2)cc1` [Example 304, 1-(2-hydroxyethyl)-3-(4-{4-morpholin-4-yl-1-[1-(pyridin-3-ylcarbonyl)piperidin-4-yl]-1H-pyrazolo[3,4-d]pyrimidin-6-yl}phenyl)urea], for which the pIC50 is 5.12 with prostate line LNCap, 6.66 at PI3K and 5.05 with breast line MDA468.

Regarding `O=C(NO)Nc1ccc(-c2nc(N3CCOCC3)c3cnn(C4CCN(C(=O)c5cccnc5)CC4)c3n2)cc1` [Example 305, 1-hydroxy-3-(4-{4-morpholin-4-yl-1-[1-(pyridin-3-ylcarbonyl)piperidin-4-yl]-1H-pyrazolo[3,4-d]pyrimidin-6-yl}phenyl)urea], the figures for the pIC50 in the assay on prostate line LNCap, on PI3K and in the assay on breast line MDA468 were 5.00, 6.22 and 5.14, respectively.

(Values after patent publication US20080234262A1 (Wyeth, priority 2007, published 2008).)
